Literature values, collected in patent publication US20110105434A1, “2-AMINO PURINE DERIVATIVES AND THEIR USE AS ANTI-HERPETIC AGENTS” (priority 2007, published 2011).

Conditions: oral maximum dose of 800 mg 5 times per day, most patients; cited from earlier work

For Nc1nc2c(ncn2COCCO)c(=O)[nH]1 [acyclovir, 2-amino-9-1,-dihydro-9-[(2-hydroxyethyl)methyl]-6H-purin-6-one], the blood level is listed as “about 1.61 ng/mL”.
